≈ marks a conversion by molar mass, not a printed value. Read-outs that look alike come from different tables or passages of the source. Numbered stars: 1 amine (or outer) side, 2 acyl side, 3 side chain; on linkers, the order of the positions; unused ones are H or OH. Square brackets hold non-standard residues; d marks the D form. Peptide text beside a SMILES is read from it. * marks the point of attachment. ξ: configuration not given here. X1 = NCC(O)CCC(N[*:1])C(=O)[*:2]; ΔZArg = N=C(N)NCC/C=C(\N)C(=O)O; ξDab(3-OH) = NCC(O)C(N)C(=O)O; Orn = NCCC[CH](N)C(=O)O; NH(CH2)4NH2 = NCCCCN*
Key:
Cytotoxicity test (MTS) = format: cell-based; settings: human; for CC50 at 72 h: MTS; for viability at 72 h: dose of up to 100 μg/mL, read-out: cell viability
Experimental: The cytotoxicity of the Odilomycins A-C was investigated against Human colon adenocarcinoma (HT29) cells and Human normal lung fibroblasts (MRC-5) cells. 200 μL of the cell suspension of HT29 (human colorectal adenocarcinoma) prepared in RPMI 1640+1% L-Glutamine supplemented with 10% (v/v) fetal calf serum and 200 μL of the cell suspension of MRC5 (human lung fibroblast) prepared in Dulbecco's modified Eagle's medium supplemented with 25 mM glucose and 10% (v/v) fetal calf serum were inoculated into 96-well plates.
The inoculating cell number was 800 cells per well for HT29 and 2100 cells per well for MRC-5. The microplates were incubated at 37° C. for 24 h with 5% of CO2.
Twenty four hours later, Odilomycin A, B or C dissolved in water were added for 72 h at a final concentration from 0.78 μg/mL to 100 μg/mL in a fixed volume of water (1% final concentration). […] Experiments were done in triplicate.

Enterococcus faecium = test system: Enterococcus faecium
Experimental: (§1) The minimal inhibitory concentrations (MIC) were determined according to the Clinical and Laboratory Standards Institute (CLSI) conditions guidelines detailed in Table 7. Assays were performed in triplicate.
(§2) Preparation of Inocula. Five to 10 well-isolated colonies were picked and resuspended in 3 ml sterile saline. The inoculum was re-suspended by vigorous shaking on a vortex mixer for 15 s. Turbidity was adjusted to McFarland standard 0.5 ([…]). The inoculum was further diluted in the appropriate media (Table 7) to give a final inoculum in each well of ˜2-8×10^5 CFU/ml.
(§3) Addition of Test Article. Stock solutions of Odilomycin A or comparator were diluted in the appropriate media to give a maximum starting concentration of 50 μg/mL in the assay. 50 μL of medium was dispensed into each well in columns two to 12 of a 96 well plate. 100 μL of the appropriate test compound solution (100 μg/mL) was dispensed into each well in column one. In the case of M. catarrhalis, M. haemolytica and P. multocida these values were doubled (a final assay volume of 200 μL was used). […] Columns 11 and 12 served as positive (no drug or test article, inoculum added), and negative (no drug, test article, or inoculum added) growth controls respectively.
(§4) Addition of Bacterial Strains. 50 μL of each inoculum suspension was added to the appropriate wells, resulting in a final volume of 100 μL consisting of 50 μL diluted compound or diluents, and 50 μL of inoculum or broth alone.

Pasteurella multocida = test system: Pasteurella multocida
Experimental: as §1, §2, §3, §4

Enterococcus faecalis = test system: Enterococcus faecalis
Experimental: as §1, §2, §3, §4

Bacillus subtilis = test system: Bacillus subtilis
Experimental: as §1, §2, §3, §4

Pseudomonas aeruginosa = settings: for Antibacterial activity (MIC): unit not given in table (MICs in μg/mL)
Experimental: as §1, §2, §3, §4

Enterobacter cloacae = test system: Enterobacter cloacae
Experimental: as §1, §2, §3, §4

Klebsiella pneumoniae = settings: K. pneumoniae
Experimental: as §1, §2, §3, §4

Moraxella catarrhalis = test system: Moraxella catarrhalis
Experimental: as §1, §2, §3, §4

Proprionibacterium acnes = settings: P. acnes ATCC 6919
Experimental: as §1, §2, §3, §4

Mannheimia haemolytica = test system: Mannheimia haemolytica
Experimental: as §1, §2, §3, §4

Haemophilus influenzae = test system: Haemophilus influenzae
Experimental: as §1, §2, §3, §4

Escherichia coli = test system: Escherichia coli
Experimental: as §1, §2, §3, §4

Streptococcus pyogenes = test system: Streptococcus pyogenes
Experimental: as §1, §2, §3, §4

[1] = test system: Staphylococcus epidermidis
Experimental: as §1, §2, §3, §4

[2] = test system: Stenotrophomonas maltophilia
Experimental: as §1, §2, §3, §4

Klebsiella oxytoca = test system: Klebsiella oxytoca
Experimental: as §1, §2, §3, §4

P. aeruginosa ATCC 27853 = format: cell-based, Pseudomonas aeruginosa; settings: ATCC 27853, 24 h
Experimental: (§5) Minimal bactericidal concentrations (MBCs) were established by extending the MIC procedure to the evaluation of bactericidal activity. After 24 hours, 10 μL were drawn from the wells, serially diluted and then spotted onto suitable agar plates. The plates were incubated at 37° C. overnight. […] All the experiments were done in triplicate.

S. aureus ATCC 13709 = format: cell-based, Staphylococcus aureus; settings: ATCC 13709, 24 h
Experimental: as §5

[3] = test system: S. aureus Smith ATCC 13709; experiment: Acute lethal infection in mice; format: in vivo, ICR mice; settings: for Survival of all treated mice: S. aureus infection; for Animal deaths Day 0 / Animal deaths Day 1 / Animal deaths Day 3 / Animal deaths Day 4 / Animal deaths Day 5 / Animal deaths Day 2: mice, S. aureus 5 log10 CFU/mouse IP, n=6
Experimental: Female ICR mice ordered from Harlan Laboratories (Indianapolis, Ind.) weighing 19-21 g were used in experiments of acute lethal infection. Mice were fully immunocompetent. Infection was induced by inoculating intraperitoneally in mice a bacterial suspension of S. aureus Smith ATCC 13709. The bacterial challenges (ca 5 log10 CFU/mouse) were given suspended in 0.5 mL of 20% hog mucin. […] Mortality was tracked out to 5 days post challenge. Animals that remained surviving at the end of the study were humanely euthanized.

[4] = HT29 colon adenocarcinoma cells
[5] = MRC-5 normal lung fibroblasts, MRC-5 cells
[6] = Odilomycin A 1.0 mg/kg IV at 1 hr
[7] = Odilomycin A 2.5 mg/kg IV at 1 hr
[8] = Odilomycin A 5.0 mg/kg IV at 1 hr

## N=C(N)NCC/C=C(\NC(=O)C(CCC(O)CN)NC(=O)C(Cc1cnc[nH]1)NC(=O)C1CCCN1C(=O)C(CCCN)NC(=O)CNC(=O)C(NC(=O)C(NC(=O)C(N)CCCCN)C(O)CN)C(O)CN)C(=O)NC(CCC(O)CN)C(=O)NCCCCN (stereo not drawn) [Odilomycin A, Lys-(3-hydroxy-2,4-diaminobutanoic acid)-(3-hydroxy-2,4-diaminobutanoic acid)-Gly-Ornithine-Pro-His-(5-hydroxylysine)-(2,3-dehydroarginine)-(5-hydroxylysine)-(1,4-diaminobutane)] (H-K[ξDab(3-OH)][ξDab(3-OH)]G[Orn]PH[X1][ΔZArg][X1]-{NH(CH2)4NH2}; configuration not given here)
Cytotoxicity test (MTS); [4]
  CC50 at 72 h: > 100 µg/mL
  viability at 72 h: 100%
Cytotoxicity test (MTS); [5]
  CC50 at 72 h: > 100 µg/mL
  viability at 72 h: 100%
Enterococcus faecium
  MIC: 25.0 µg/mL (≈ 19.3 µM)
Enterococcus faecium; E. faecium
  antibacterial activity: Weak or no antibacterial activity
Pasteurella multocida
  MIC: 25.0 µg/mL (≈ 19.3 µM)
Enterococcus faecalis
  MIC: >50.0 µg/mL
Enterococcus faecalis; E. faecalis
  antibacterial activity: Weak or no antibacterial activity
Bacillus subtilis
  MIC: <0.20 µg/mL
  MICs: < 1 µg/mL
Pseudomonas aeruginosa
  MIC: 3.12 µg/mL (≈ 2.41 µM)
  MICs: < 10 µg/mL
Pseudomonas aeruginosa; P. aeruginosa ATCC 27853
  MIC: 3.13 µg/mL (≈ 2.41 µM)
Pseudomonas aeruginosa; P. aeruginosa multiresistant clinical isolate 5618
  Antibacterial activity (MIC): 6.25
Pseudomonas aeruginosa; P. aeruginosa multiresistant clinical isolate 35170
  Antibacterial activity (MIC): >50
Pseudomonas aeruginosa; P. aeruginosa multiresistant clinical isolate 42162
  Antibacterial activity (MIC): 25
Pseudomonas aeruginosa; P. aeruginosa multiresistant clinical isolate 401681
  Antibacterial activity (MIC): 25
Pseudomonas aeruginosa; P. aeruginosa multiresistant clinical isolate 512232
  Antibacterial activity (MIC): 3.12
Enterobacter cloacae
  MIC: 1.56 µg/mL (≈ 1.2 µM)
  MICs: < 10 µg/mL
Klebsiella pneumoniae
  antibacterial activity: strong
Moraxella catarrhalis
  MIC: 1.56 µg/mL (≈ 1.2 µM)
  MICs: < 10 µg/mL
Proprionibacterium acnes
  MIC: 3.13 µg/mL (≈ 2.41 µM)
Mannheimia haemolytica
  MIC: 50.0 µg/mL (≈ 38.6 µM)
Haemophilus influenzae
  MIC: 12.5 µg/mL (≈ 9.64 µM)
Escherichia coli
  MICs: < 10 µg/mL
Escherichia coli; E. coli CTX-M14 clinical isolate AEC7
  MIC: 3.13 µg/mL (≈ 2.41 µM)
Escherichia coli; E. coli CTX-M15 clinical isolate MEC23
  MIC: 3.13 µg/mL (≈ 2.41 µM)
Streptococcus pyogenes
  MIC: 50.0 µg/mL (≈ 38.6 µM)
Streptococcus pyogenes; S. pyogenes
  antibacterial activity: Weak or no antibacterial activity
[1]
  MIC: <0.20 µg/mL
  MICs: < 1 µg/mL
[2]
  MIC: 6.25 µg/mL (≈ 4.82 µM)
  MICs: < 10 µg/mL
Klebsiella oxytoca
  MIC: 0.39 µg/mL (≈ 0.301 µM)
Klebsiella oxytoca; K. oxytoca
  antibacterial activity: strong
P. aeruginosa ATCC 27853
  MBC: 6.25 µg/mL (≈ 4.82 µM)
S. aureus ATCC 13709
  MBC: 0.78 µg/mL (≈ 0.602 µM)
[3]; Odilomycin A 2.5 mg/kg IV
  Survival of all treated mice: survived up to 5 days after infection
[3]; Odilomycin A 5.0 mg/kg IV
  Survival of all treated mice: survived up to 5 days after infection
[3]; [6]
  Animal deaths Day 0: 0
  Animal deaths Day 1: 0
  Animal deaths Day 3: 0
  Animal deaths Day 4: 0
  Animal deaths Day 5: 0
[3]; [7]
  Animal deaths Day 0: 0
  Animal deaths Day 1: 0
  Animal deaths Day 2: 0
  Animal deaths Day 3: 0
  Animal deaths Day 4: 0
  Animal deaths Day 5: 0
[3]; [8]
  Animal deaths Day 0: 0
  Animal deaths Day 1: 0
  Animal deaths Day 2: 0
  Animal deaths Day 3: 0
  Animal deaths Day 4: 0
  Animal deaths Day 5: 0

From patent US9260481B2, “Peptide derivatives as antibiotics” (priority 2011, dated 2016)
